Entries after “also recorded” stand apart in the source; their conditions may differ. Like-named read-outs stand apart in the source and are kept apart here. Bounds are passed on as bounds.

This is an account of results in patent US12600725B2 (Memorial Sloan-Kettering Cancer Center, priority 2013, dated 2026).

One assay deals with Hsp90 (Homo sapiens, UniProt P08238). Conditions: McLaughlin et al. 2004; read-out: reported interaction with Hsp90; cited from earlier work.
The target of assay [1] is T1, Hsp90β (Homo sapiens, UniProt P08238).
T1 sequence (P08238 whole entry): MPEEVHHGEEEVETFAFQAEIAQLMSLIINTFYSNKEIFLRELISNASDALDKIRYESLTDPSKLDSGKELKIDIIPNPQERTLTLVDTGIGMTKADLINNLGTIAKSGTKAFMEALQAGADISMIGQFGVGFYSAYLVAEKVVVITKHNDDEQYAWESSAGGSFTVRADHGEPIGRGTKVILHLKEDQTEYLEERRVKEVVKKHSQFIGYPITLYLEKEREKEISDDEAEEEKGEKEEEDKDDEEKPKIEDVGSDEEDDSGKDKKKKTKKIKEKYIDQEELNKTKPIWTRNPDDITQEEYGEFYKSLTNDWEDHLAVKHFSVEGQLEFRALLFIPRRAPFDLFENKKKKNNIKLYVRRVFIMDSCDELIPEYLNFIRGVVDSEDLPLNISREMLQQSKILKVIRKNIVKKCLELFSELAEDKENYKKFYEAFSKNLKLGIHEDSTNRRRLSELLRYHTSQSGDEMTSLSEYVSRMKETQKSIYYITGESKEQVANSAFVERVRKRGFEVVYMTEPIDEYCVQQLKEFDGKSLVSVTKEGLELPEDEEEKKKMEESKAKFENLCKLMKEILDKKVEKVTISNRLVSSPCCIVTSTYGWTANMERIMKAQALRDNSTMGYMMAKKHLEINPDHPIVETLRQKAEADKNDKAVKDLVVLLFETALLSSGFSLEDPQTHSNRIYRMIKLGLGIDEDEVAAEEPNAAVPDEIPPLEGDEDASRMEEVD
The target of assay [2] is T2, Grp94 (Canis lupus familiaris, UniProt P41148).
T2 sequence (P41148 with tags, fused parts or gaps DELINS287-327GGGG): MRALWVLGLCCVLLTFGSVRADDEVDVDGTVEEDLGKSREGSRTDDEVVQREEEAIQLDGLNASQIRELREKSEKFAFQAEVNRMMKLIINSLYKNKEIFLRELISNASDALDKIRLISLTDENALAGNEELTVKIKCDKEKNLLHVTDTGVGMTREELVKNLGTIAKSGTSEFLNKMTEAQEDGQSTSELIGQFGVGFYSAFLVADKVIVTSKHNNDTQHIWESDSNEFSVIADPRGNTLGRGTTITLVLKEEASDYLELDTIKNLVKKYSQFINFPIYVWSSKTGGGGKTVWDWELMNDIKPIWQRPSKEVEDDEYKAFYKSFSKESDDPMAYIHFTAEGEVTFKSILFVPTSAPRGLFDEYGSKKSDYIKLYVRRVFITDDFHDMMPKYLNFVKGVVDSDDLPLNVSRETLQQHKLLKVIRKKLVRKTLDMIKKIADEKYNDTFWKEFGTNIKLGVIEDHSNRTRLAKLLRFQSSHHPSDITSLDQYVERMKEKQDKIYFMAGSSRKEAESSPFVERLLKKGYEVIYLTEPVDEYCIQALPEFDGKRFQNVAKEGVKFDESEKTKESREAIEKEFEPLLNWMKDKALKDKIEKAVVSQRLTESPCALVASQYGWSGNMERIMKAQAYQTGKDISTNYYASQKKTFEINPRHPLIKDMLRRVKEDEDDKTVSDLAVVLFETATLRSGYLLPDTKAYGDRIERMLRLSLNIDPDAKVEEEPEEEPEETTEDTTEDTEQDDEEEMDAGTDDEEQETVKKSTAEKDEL
The target of assay [3] is T3, Trap-1 (Homo sapiens, UniProt Q12931).
T3 sequence (Q12931 60-704): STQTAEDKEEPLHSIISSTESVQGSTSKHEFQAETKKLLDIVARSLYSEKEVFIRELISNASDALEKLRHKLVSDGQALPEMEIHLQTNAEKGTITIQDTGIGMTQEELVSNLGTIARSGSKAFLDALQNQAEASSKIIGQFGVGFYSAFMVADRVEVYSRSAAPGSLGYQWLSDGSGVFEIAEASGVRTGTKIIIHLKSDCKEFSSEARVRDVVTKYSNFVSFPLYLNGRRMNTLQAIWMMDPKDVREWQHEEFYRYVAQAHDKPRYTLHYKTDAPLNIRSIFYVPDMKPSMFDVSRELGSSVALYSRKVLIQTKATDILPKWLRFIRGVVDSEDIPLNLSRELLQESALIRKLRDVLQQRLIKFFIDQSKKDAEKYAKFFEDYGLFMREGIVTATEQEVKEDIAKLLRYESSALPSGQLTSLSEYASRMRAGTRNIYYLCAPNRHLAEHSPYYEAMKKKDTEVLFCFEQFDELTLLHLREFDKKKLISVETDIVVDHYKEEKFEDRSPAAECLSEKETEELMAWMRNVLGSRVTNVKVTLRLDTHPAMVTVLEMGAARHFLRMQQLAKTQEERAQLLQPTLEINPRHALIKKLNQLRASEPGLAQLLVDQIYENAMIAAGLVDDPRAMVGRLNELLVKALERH
The settings on record: read-out: Trap-1 IC50; 43a as FP probe.

In assay [4] the target is T4, Hsp90α (Homo sapiens, UniProt P07900).
Assay [5] concerns the target T1, Hsp90β. Conditions: Richter et al. 2008; read-out: reported binding to Hsp90β; cited from earlier work.
Assay [6] deals with T4, Hsp90α. Conditions: Richter et al. 2008; read-out: reported binding to Hsp90α; cited from earlier work.
Assay [7] addresses T3, Trap-1. Also noted: purchased Enzo Life Sciences ADI-SPP-848. Conditions: cited from earlier work.
Assay [8] concerns the target T4, Hsp90α. The experiment in a line: Hsp90 FP saturation binding assay of FP probes. Conditions: saturation binding of FP probe; read-out: apparent Kd. On the procedure:
(§1) We next determined, in a standard saturation binding experiment that measures ligand binding in the presence of varying concentration of protein, the ability of these ligands as probes for the Hsp90 paralogs (FIGS. 22b-c).
(§2) Hsp90 saturation binding assay. […] The assay window was calculated as the difference between the FP value recorded for the bound fluorescent tracer and the FP value recorded for the free fluorescent tracer (defined as mP-mPf).

Assay [9] deals with T1, Hsp90β. The assay can be described thus: Hsp90 FP saturation binding assay of FP probes. The settings on record: saturation binding of FP probe; read-out: apparent Kd. On the procedure:
as §1, §2

Assay [10] concerns the target T3, Trap-1. The assay can be described thus: Hsp90 FP saturation binding assay of FP probes. Also noted: purchased Enzo Life Sciences ADI-SPP-848. The settings on record: saturation binding of FP probe; read-out: apparent Kd. On the procedure:
as §1, §2

Assay [11] addresses T2, Grp94. The assay can be described thus: Hsp90 FP saturation binding assay of FP probes. Set-up: other: 43a as FP probe; Grp94; apparent Kd; assay window; other: probe 115a. Conditions: saturation binding of FP probe. Here is the method:
as §1, §2

In assay [12] the test system is TLR9 ligand CpG DNA induced TNF-α production in RAW 264.7 macrophages. The assay can be described thus: TNFα ELISA, CpG DNA stimulated macrophages. Format: cell-based, mouse. (In an ELISA, binding on a coated surface is turned into a signal by an enzyme label.)
Assay [13] addresses T4, Hsp90α. The assay can be described thus: biochemical.
The target in assay [14] is T3, Trap-1. Conditions: read-out: TRAP-1.
The target in assay [15] is T4, Hsp90α. This is another data set of the same source.
For assay [16], the target named is T1, Hsp90β. The source holds these as a separate data set.
The subject of assay [17] is Human Umbilical Vein Endothelial Cells (HUVECs). The experiment in a line: Angiogenesis studies with HUVEC cells. It counts as cell-based.
Assay [18] deals with PANC1 EGFR-overexpressing cells. The settings on record: Mol Cancer Ther 2006; 5:2051-2059; cited from earlier work.
Where [19] appears, read: read-out: Hsp90β IC50, 43a as FP probe.
[20] abbreviates: read-out: binding affinity (FP competition), probe 115a.
The mark [21] stands for this setting: read-out: Grp94 IC50, 43a as FP probe.
Where [22] appears, read: read-out: Hsp90α IC50, 43a as FP probe.

Hsp90, sequence (P08238 whole entry): as the sequence (P08238 whole entry) above

With `Nc1ncnc2c1ncn2[C@@H]1O[C@H](COP(=O)(O)OP(=O)(O)O)[C@@H](O)[C@H]1O` [ADP], the figures for the Kd at Hsp90, on Hsp90β [5] and at Hsp90α [6] were 41 µM, 34 µM and 51 µM, respectively. For the same compound, the IC50 was found to be 42.2 µM at Hsp90β [1] (setting [19]); 42 µM on Hsp90β [1] (setting [20]); 11.4 µM at Grp94 [2] (setting [21]); 11.4 µM at Grp94 [2] (setting [20]); 55.6 µM at Trap-1 [3]; 59.3 µM on Hsp90α [4] (setting [22]). The IC50 on Hsp90α [4] (setting [20]) was 59 µM.

On to `Nc1ncnc2c1ncn2[C@@H]1O[C@H](COP(=O)(O)OP(=O)(O)OP(=O)(O)O)[C@@H](O)[C@H]1O` [ATP], for which the “reported greater affinity of Trap-1 than Hsp90” value on Trap-1 [7] is on record as “approximately 10 fold”. The Kd at Hsp90 is 840 µM. The IC50 on Hsp90β [1] (setting [19]) was found to be 894 µM; on Grp94 [2] (setting [21]) it was 3.24 µM; on Grp94 [2] (setting [20]) it was 3.2 µM; at Trap-1 [3], 31.3 µM; at Hsp90α [4] (setting [22]), 861 µM.

Consider `C[C@@H](NCCCn1c(Sc2cc(Cl)cc(Cl)c2)nc2c(N)ncnc21)C1CC1` [Compound 40], for which the Kd worked out at 0.0039 µM on Hsp90α [8], 0.0028 µM at Hsp90β [9], 0.0058 µM on Trap-1 [10] and 0.0307 µM at Grp94 [11] (read-out: apparent Kd). Further, the assay window entry on Grp94 [11] is reported as “less than 100 mP”.

In the case of `C#CCCCn1cnc(N)c2nc(Sc3ccc(C)cc3C)nc1-2` [PU-H54], the “CpG DNA induced TNF-α production” value in assay [12] is “inhibited this response in a concentration dependent manner; also recorded: inhibit”. Further, the IC50 is above 250 µM at Hsp90α [13], 54.1 ± 4.6 µM at Trap-1 [14] and above 250 µM against Hsp90β [16]. Besides, the “affinity for Hsp90” value at Hsp90α [15] is “low affinity”. In assay [17], the HUVEC cell proliferation entry is recorded as “does not affect substantially the cell proliferation”. Besides, in [17], the “angiogenic-like transformation of HUVECs induced by Grp94 and by peak 2” value is listed as “able to change the angiogenic-like transformation of HUVECs; also recorded: displays an anti-angiogenic effect; also recorded: inhibited”.

Regarding `C#Cc1cccc(Nc2ncnc3cc(OCCOC)c(OCCOC)cc23)c1` [erlotinib], the “reported resistance of PANC1 cells” value in assay [18] was “resistant”.
